Reference: patent US20130035326A1 (AMBIT BIOSCIENCES CORPORATION, priority 2009, published 2013)

Columns and labels:
KIT kinase = molecular target: T1, KIT kinase (Homo sapiens, UniProt P10721); assay: Competition binding assay, KIT Kd
T1 construct: made in house; host or cells: T7 phage display or HEK-293 cells
Procedure, shortened: (§1)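 Kd values derived from an eleven-point, threefold compound dilution series in a bead-based competition format: kinase (phage-fused or HEK-293-derived with DNA tag), ligand-coated streptavidin beads and compound equilibrated 1 h at room temperature. After washing, retained kinase was eluted with non-biotinylated ligand (0.5 μM) and measured by quantitative PCR.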

[1] = molecular target: kinase panel containing either 359 or 386 distinct kinases; assay: Selectivity score S10 from competition binding against a panel of kinases; settings: compounds at 10 μM; for Kinase specificty: S(10)-359 panel: panel of 359 distinct kinases; for Kinase specificty: S(10)-386 panel: panel of 386 distinct kinases
Procedure, shortened: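 Compounds were tested at 10 μM in competition binding against T7 phage-fused or HEK-293-expressed DNA-tagged kinases with immobilized affinity ligands, 1 h at room temperature. Bound kinase was quantified by qPCR as percent of DMSO control; S10 is the fraction of distinct kinases (mutants excluded) with POC below 10.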

CSF-1R kinase = molecular target: T2, CSF-1R kinase (Homo sapiens, UniProt P07333); assay: Competition binding assay, CSF-1R Kd
T2 construct: made in house; host or cells: T7 phage display or HEK-293 cells
Procedure, shortened: as §1

FLT3 kinase = molecular target: T3, FLT3 kinase (Homo sapiens, UniProt P36888); assay: Competition binding assay, FLT3 Kd
T3 construct: made in house; host or cells: T7 phage display or HEK-293 cells
T3 sequence (P36888 27-993): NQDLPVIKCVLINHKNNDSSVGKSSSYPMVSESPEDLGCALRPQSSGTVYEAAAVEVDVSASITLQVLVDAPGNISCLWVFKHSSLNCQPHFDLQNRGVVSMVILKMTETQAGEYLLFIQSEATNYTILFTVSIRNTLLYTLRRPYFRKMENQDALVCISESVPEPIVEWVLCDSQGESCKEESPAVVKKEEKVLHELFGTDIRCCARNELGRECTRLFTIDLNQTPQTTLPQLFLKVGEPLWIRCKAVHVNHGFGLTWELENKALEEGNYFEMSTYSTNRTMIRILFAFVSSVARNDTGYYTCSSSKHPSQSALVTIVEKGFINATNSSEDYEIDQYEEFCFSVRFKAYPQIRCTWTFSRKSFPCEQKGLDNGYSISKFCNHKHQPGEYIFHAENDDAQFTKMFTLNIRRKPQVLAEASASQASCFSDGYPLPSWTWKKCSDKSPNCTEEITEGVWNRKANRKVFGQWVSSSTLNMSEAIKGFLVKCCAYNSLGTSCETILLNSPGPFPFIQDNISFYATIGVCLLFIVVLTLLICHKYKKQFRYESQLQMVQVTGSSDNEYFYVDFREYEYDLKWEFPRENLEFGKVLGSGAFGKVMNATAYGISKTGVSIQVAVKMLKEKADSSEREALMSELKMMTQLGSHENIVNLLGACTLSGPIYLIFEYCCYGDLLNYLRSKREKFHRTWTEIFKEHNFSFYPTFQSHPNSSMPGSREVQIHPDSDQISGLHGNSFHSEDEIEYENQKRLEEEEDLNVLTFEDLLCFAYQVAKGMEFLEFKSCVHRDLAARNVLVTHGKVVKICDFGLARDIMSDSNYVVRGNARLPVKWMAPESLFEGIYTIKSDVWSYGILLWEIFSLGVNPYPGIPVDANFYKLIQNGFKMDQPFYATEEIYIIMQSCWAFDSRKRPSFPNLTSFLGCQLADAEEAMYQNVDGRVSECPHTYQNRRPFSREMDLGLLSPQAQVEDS
Procedure, shortened: as §1

MV4-11 cells = assay: MV4-11 cell proliferation assay (Alamar Blue); type: cell-based; settings: 3 days incubation
Procedure, shortened: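 Flt3-ITD MV4-11 cells were serum-starved overnight in Iscove's with 0.5% FBS, then given compound at 9 half-log concentrations (0.5% DMSO) for 3 days at 37° C. Alamar Blue reduction was read after 3 h by fluorescence (560/590 nm). IC50 is the mean of duplicates versus negative control.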

T2 sequence (P07333 20-972): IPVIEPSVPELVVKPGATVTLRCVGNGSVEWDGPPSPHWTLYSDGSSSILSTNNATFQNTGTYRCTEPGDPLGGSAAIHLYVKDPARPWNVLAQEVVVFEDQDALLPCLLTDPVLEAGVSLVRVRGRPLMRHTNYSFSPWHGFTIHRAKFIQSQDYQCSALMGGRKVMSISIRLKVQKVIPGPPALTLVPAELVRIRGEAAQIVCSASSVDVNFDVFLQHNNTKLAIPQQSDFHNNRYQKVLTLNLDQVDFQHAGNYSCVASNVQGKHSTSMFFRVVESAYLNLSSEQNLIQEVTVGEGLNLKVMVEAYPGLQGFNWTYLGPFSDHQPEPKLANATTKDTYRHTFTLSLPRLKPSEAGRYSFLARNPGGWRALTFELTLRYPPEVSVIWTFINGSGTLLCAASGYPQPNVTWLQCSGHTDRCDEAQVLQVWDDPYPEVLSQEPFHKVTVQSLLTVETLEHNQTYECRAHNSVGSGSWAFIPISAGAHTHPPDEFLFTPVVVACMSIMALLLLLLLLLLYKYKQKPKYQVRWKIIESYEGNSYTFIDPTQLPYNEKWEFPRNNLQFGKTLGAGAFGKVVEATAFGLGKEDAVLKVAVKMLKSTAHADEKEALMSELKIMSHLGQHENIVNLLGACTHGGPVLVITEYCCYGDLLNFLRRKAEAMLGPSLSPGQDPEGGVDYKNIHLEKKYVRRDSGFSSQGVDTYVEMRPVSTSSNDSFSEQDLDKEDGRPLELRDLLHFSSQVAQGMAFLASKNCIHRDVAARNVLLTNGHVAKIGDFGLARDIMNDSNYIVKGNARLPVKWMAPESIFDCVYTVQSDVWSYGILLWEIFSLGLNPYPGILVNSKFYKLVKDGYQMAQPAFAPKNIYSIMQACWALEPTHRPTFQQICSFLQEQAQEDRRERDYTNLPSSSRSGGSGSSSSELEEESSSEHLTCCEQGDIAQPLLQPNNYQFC
T1 sequence (P10721 26-976): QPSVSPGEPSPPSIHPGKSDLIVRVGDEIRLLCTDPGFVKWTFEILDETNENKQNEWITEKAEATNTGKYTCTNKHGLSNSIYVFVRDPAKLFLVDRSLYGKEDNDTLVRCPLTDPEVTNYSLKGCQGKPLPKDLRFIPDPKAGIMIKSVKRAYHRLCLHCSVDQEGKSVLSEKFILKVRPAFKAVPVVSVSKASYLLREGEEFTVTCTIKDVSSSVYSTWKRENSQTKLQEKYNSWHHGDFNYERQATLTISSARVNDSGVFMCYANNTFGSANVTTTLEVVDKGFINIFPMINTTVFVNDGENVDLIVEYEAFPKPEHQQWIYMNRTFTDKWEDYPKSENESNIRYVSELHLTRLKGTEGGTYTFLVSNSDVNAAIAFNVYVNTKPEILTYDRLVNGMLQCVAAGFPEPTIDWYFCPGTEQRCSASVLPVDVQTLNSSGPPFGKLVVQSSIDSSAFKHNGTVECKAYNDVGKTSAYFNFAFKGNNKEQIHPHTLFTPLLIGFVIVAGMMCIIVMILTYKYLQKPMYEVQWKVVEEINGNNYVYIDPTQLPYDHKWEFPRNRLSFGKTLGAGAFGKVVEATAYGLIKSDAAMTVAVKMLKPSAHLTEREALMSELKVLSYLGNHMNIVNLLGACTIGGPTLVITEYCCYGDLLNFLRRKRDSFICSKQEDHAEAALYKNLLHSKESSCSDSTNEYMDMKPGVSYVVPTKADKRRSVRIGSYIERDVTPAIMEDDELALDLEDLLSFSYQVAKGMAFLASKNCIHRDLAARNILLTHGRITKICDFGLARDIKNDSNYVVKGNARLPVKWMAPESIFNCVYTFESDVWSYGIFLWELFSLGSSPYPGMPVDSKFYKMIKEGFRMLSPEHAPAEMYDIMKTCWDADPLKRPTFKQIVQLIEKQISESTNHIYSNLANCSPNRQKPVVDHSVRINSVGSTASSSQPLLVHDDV

Row | Compound | Kd (KIT kinase) [nM] | Kinase specificty: S(10)-359 panel [1] | Kinase specificty: S(10)-386 panel [1] | Kd (CSF-1R kinase) [nM] | Kd (FLT3 kinase) [nM] | IC50 (MV4-11 cells; Homo sapiens, MV4-11, 72 h) [nM] | IC50 (MV4-11 cells) [nM]
1 | CC(C)(C)c1cc(NC(=O)Nc2ccc(-c3ccc(N)nc3)cc2)no1 [Example 1, 1-(4-(6-aminopyridin-3-yl)phenyl)-3-(5-tert-butylisoxazol-3-yl)urea] | ≤ 1 | A (A≦0.1) | A (A≦0.1) | ≤ 10 | ≤ 1 | ≤ 1 | 
2 | O=C(Nc1ccc(-c2cnc(NCCN3CCOCC3)nc2)cc1)Nc1cc(C2(C(F)(F)F)CC2)on1 [Example 53, 1-{4-[2-(2-morpholin-4-yl-ethylamino)-pyrimidin-5-yl]-phenyl}-3-[5-(1-trifluoromethyl-cyclopropyl)-isoxazol-3-yl]urea] | ≤ 1 | B (0.1<B≦0.2 nM) |  | ≤ 10 | ≤ 1 | 1 to 10 | 
3 | O=C(Cc1cccc(C(F)(F)F)c1)Nc1ccc(-c2cnc(NC3CC3)nc2)cn1 [Example 66, N-(5-(2-(cyclopropylamino)pyrimidin-5-yl)pyridine-2-yl)-2-(3-(trifluoromethyl)phenyl)acetamide] | ≤ 1 | A (A≦0.1) |  | ≤ 10 | 1 to 10 | 100 to 500 | 
4 | Cc1nc(N)ncc1-c1ccc(NC(=O)Nc2cc(C(C)(C)C)on2)cc1 [Example 49, 1-(4-(2-amino-4-methylpyrimidin-5-yl)phenyl)-3-(5-tert-butylisoxazol-3-yl)urea] | ≤ 1 | B (0.1<B≦0.2 nM) |  | ≤ 10 | ≤ 1 | ≤ 1 | 
5 | CC(C)(C)c1cc(NC(=O)Nc2ccc(-c3ccc(N)nc3)c(Cl)c2)no1 [Example 16, 1-(4-(6-aminopyridin-3-yl)-3-chlorophenyl)-3-(5-tert-butylisoxazol-3-yl)urea] | ≤ 1 | B (0.1<B≦0.2 nM) |  | 10 to 100 | ≤ 1 | 1 to 10 | 
6 | CC(C)(C)c1cc(NC(=O)Nc2ccc(-c3ccc(N)nc3)c(F)c2)no1 [Example 11, 1-(4-(6-aminopyridin-3-yl)-3-fluorophenyl)-3-(5-tert-butylisoxazol-3-yl)urea] | 1 to 10 | A (A≦0.1) |  | ≤ 10 | ≤ 1 | 1 to 10 | 
7 | 2-(4-(6-aminopyridin-3-yl)phenyl)-N-(3-tert-butyl-1H-pyrazol-1-yl)acetamide and 2-(4-(6-aminopyridin-3-yl)phenyl)-N-(5-tert-butyl-1H-pyrazol-1-yl)acetamide [Example 91] | 1 to 10 |  | A (A≦0.1) | 10 to 100 | ≤ 1 |  | 1 to 10
8 | Cc1nc(N)ccc1-c1ccc(NC(=O)Nc2cc(C(C)(C)C)on2)nc1 [Example 25, 1-(6′-amino-2′-methyl-3,3′-bipyridin-6-yl)-3-(5-tert-butylisoxazol-3-yl)urea] | ≤ 1 | A (A≦0.1) |  | 10 to 100 | ≤ 1 | 100 to 500 | 
9 | CN(C)CCNc1ncc(-c2ccc(NC(=O)Nc3cc(C(C)(C)C)on3)cc2)cn1 [Example 57, 1-(5-tert-butylisoxazol-3-yl)-3-(4-(2-(2-(dimethylamino)ethylamino)pyrimidin-5-yl)phenyl)urea] | ≤ 1 | A (A≦0.1) |  | ≤ 10 | ≤ 1 | 10 to 100 | 

Continued, in another order:

Row | Kd (KIT kinase) [nM] | Kinase specificty: S(10)-359 panel [1] | Kinase specificty: S(10)-386 panel [1] | Kd (CSF-1R kinase) [nM] | Kd (FLT3 kinase) [nM] | IC50 (MV4-11 cells; Homo sapiens, MV4-11, 72 h) [nM] | Compound | IC50 (MV4-11 cells) [nM]
10 | 1 to 10 |  | A (A≦0.1) | ≤ 10 | ≤ 1 | 1 to 10 | CC(C)(C)c1cc(NC(=O)Nc2ccc(-c3ccc(NCCN4CCC(F)(F)CC4)nc3)cc2)no1.CS(=O)(=O)O [Example 107, 1-(2-((5-(4-(3-(5-(tert-butyl)isoxazol-3-yl)ureido)phenyl)pyridin-2-yl)amino)ethyl)-4,4-difluoropiperidin-1-ium methanesulfonate] | 
11 | ≤ 1 | A (A≦0.1) |  | 10 to 100 | 1 to 10 | 10 to 100 | CC(C)Nc1ncc(-c2ccc(NC(=O)Cc3cccc(C(F)(F)F)c3)nc2)cn1 [Example 67, N-(5-(2-(isopropylamino)pyrimidin-5-yl)pyridin-2-yl)-2-(3-(trifluoromethyl)phenyl)acetamide] | 
12 | ≤ 1 |  | A (A≦0.1) | ≤ 10 | ≤ 1 | ≤ 1 | CCNc1ccc(-c2ccc(CC(=O)Nc3cc(C(C)(C)C)on3)cc2)cn1.CS(=O)(=O)O [Example 111, 5-(4-(2-(5-tert-butylisoxazol-3-ylamino)-2-oxoethyl)phenyl)-N-ethylpyridin-2-aminium methanesulfonate] | 
13 | 1 to 10 |  | A (A≦0.1) | 10 to 100 | ≤ 1 | 1 to 10 | COc1cc(N)ncc1-c1ccc(CC(=O)Nc2cc(C(C)(C)C)on2)cc1 [Example 157] | 
14 | ≤ 1 |  | A (A≦0.1) | ≤ 10 | ≤ 1 | 1 to 10 | CC1(c2cc(NC(=O)Nc3ccc(-c4ccc(N)nc4)cc3)no2)CC1.CS(=O)(=O)O [Example 106, 5-(4-(3-(5-(1-methylcyclopropyl)isoxazol-3-yl)ureido)phenyl)pyridin-2-aminium methanesulfonate] | 
15 | ≤ 1 |  | A (A≦0.1) | ≤ 10 | ≤ 1 | 1 to 10 | CS(=O)(=O)O.Nc1ccc(-c2ccc(CC(=O)Nc3cc(C4CCC4)no3)cc2)cn1 [Example 143, 5-(4-(2-((3-cyclobutylisoxazol-5-yl)amino)-2-oxoethyl)phenyl)pyridin-2-aminium methanesulfonate] | 
16 | 1 to 10 |  | A (A≦0.1) | 10 to 100 | ≤ 1 | 10 to 100 | CC(C)(C)c1cc(NC(=O)Cc2ccc(-c3cnc(N)cc3C(F)(F)F)cc2)no1 [Example 156] | 
17 | ≤ 1 |  | B (0.1<B≦0.2 nM) | ≤ 10 | ≤ 1 | ≤ 1 | CC1(c2cc(NC(=O)Cc3ccc(-c4ccc(N)nc4)cc3)no2)CCC1.CS(=O)(=O)O [Example 144, 5-(4-(2-((5-(1-methylcyclobutyl)isoxazol-3-yl)amino)-2-oxoethyl)phenyl)pyridin-2-aminium methanesulfonate] | 
18 | 1 to 10 |  | B (0.1<B≦0.2 nM) | ≤ 10 | ≤ 1 | ≤ 1 | COc1cc(-c2ccc(CC(=O)Nc3cc(C(C)(C)C)on3)cc2)cnc1N.CS(=O)(=O)O [Example 136, 5-(4-(2-(5-tert-butylisoxazol-3-ylamino)-2-oxoethyl)phenyl)-3-methoxypyridin-2-aminium methanesulfonate] | 
19 | 1 to 10 |  | B (0.1<B≦0.2 nM) | ≤ 10 | ≤ 1 | ≤ 1 | CS(=O)(=O)O.Nc1ncc(-c2ccc(CC(=O)Nc3cc(C4(C(F)(F)F)CC4)on3)cc2)cc1Cl [Example 133, 3-chloro-5-(4-(2-oxo-2-(5-(1-(trifluoromethyl)cyclopropyl)isoxazol-3-ylamino)ethyl)phenyl)pyridin-2-aminium methanesulfonate] | 
20 | 1 to 10 |  | A (A≦0.1) | ≤ 10 | ≤ 1 | ≤ 1 | CC(C)(c1cc(NC(=O)Cc2ccc(-c3ccc(N)nc3F)cc2)no1)C(F)(F)F.CS(=O)(=O)O [Example 142, 6-fluoro-5-(4-(2-oxo-2-(5-(1,1,1-trifluoro-2-methylpropan-2-yl)isoxazol-3-ylamino)ethyl)phenyl)pyridin-2-aminium methanesulfonate] | 
